Experimental data as given in patent US20090062120A1, “Agrochemical Composition” (priority 2005, published 2009).

What was measured:
[1] = format: physicochemical; settings: for External appearance of dilution [5% in water] / Crystal formation in dilution [5% in water; 24 hours, 30° C.] / External appearance of dilution [5% in water; 24 hours, 30° C.] / External appearance of formulation [25° C.; on day of preparation] / External appearance of formulation [after 48 hours at 0° C.]: 2,4-D isopropylamine salt 300 g/l; for External appearance of dilution [5% in water] / Crystal formation in dilution [5% in water; 24 hours, 30° C.] / External appearance of dilution [5% in water; 24 hours, 30° C.]: solvent 5% by volume; for External appearance of dilution [5% in water]: 5% (v/v) dilution in water, 500 ppm CaCO3; for Crystal formation in dilution [5% in water; 24 hours, 30° C.] / External appearance of dilution [5% in water; 24 hours, 30° C.]: 5% dilution in water; for External appearance of formulation [25° C.; on day of preparation] / External appearance of formulation [after 48 hours at 0° C.]: solvent addition 5% by volume
Text: In the form of its amine salts, 2,4-dichlorophenoxyacetic acid tends to crystallize out of concentrated solutions. It is state of the art to use an approximately 5% addition of NMP in order to prevent crystallization. In the present example the isopropylamine salt of 2,4-dichlorophenoxyacetic acid was used, 2,4-D IPA for short.
Concentrated aqueous solutions of 2,4-D in isopropylamine salt form (350 g/l) were admixed with quantities of demineralized water and of the corresponding solvent addition such that the concentration of 2,4-D isopropylamine salt was 300 g/l and that of the solvent under test was 5% v/v. Then the external appearance, instantaneously (see column 2 of Table 5) and after storage at 0° C. […] Particular emphasis was placed on any crystal formation.

[2] = cited from earlier work
[3] = Solubilities of active agrochemical substances in acetylcaprolactam
[4] = Dissolution of tebuconazole in standard aromatic solvents alone; format: physicochemical; settings: exclusive use of Solvesso 150 or Solvesso 200, without acetylcaprolactam; 250 g/l
Text: A corresponding formulation using these solvents alone, therefore, cannot be prepared.

External appearance of dilution [5% in water] [1] | Crystal formation in dilution [5% in water; 24 hours, 30° C.] [1] | External appearance of dilution [5% in water; 24 hours, 30° C.] [1] | External appearance of formulation [25° C.; on day of preparation] [1] | External appearance of formulation [after 48 hours at 0° C.] [1] | Behavior compared with NMP [1] | Compound | Toxic effect observed in animal experiments [2] | Solubility (% by wt.) at 25° C. [3] | Dissolution at the concentration specified in Example 4 [4]
clear | <1% | clear solution, | clear solution | clear solution | – | COCC(C)OCC(C)OC (stereo not drawn) [Dipropylene glycol dimethyl ether] | – | – | –
turbid | <1% | sample separated, | clear solution | clear solution | – | CCCCCCCCCC(=O)N(C)C [Genagen 4296, N,N-dimethylcapramide] | – | – | –
clear | no crystals | clear solution, | clear solution | clear solution | – | CN1CCCC1=O [N-Methylpyrrolidone, N-Methyl-2-pyrrolidone] | developmentally toxic effect | – | –
clear | no crystals | clear solution, | clear solution | clear solution | closest to NMP | CC(=O)N1CCCCCC1=O [Peractive LAC, acetylcaprolactam] | – | – | –
clear | <1% | clear solution, | clear solution | clear solution | – | COCCOCCOCCOCCOC [Tetraethylene glycol dimethyl ether] | – | – | –
clear | >1% | clear solution, | clear solution | clear solution | – | COCCOCCOCCOC [Triethylene glycol dimethyl ether] | – | – | –
– | – | – | – | – | – | CCC(CC)Nc1c([N+](=O)[O-])cc(C)c(C)c1[N+](=O)[O-] [pendimethalin, N-(1-ethylpropyl)-3,4-dimethyl-2,6-dinitrophenylamine] | – | 60-65 % by wt. | –
– | – | – | – | – | – | COC(=O)Nc1cccc(OC(=O)Nc2cccc(C)c2)c1 [phenmedipham] | – | 15-20 % by wt. | –
– | – | – | – | – | – | CC(C)(C)C(O)(CCc1ccc(Cl)cc1)Cn1cncn1 (stereo not drawn) [tebuconazole, R,S-1-p-chlorophenyl-4,4-dimethyl-3-(1H-1,2,4-triazol-1-yl-methyl)pentan-3-ol] | – | – | cannot be dissolved completely
– | – | – | – | – | – | O=CNC(N1CCN(C(NC=O)C(Cl)(Cl)Cl)CC1)C(Cl)(Cl)Cl (stereo not drawn) [triforine, N,N′-[1,4-piperazinediylbis(2,2,2-trichloroethylidene)]bis-formamide] | – | 15-20 % by wt. | –
